Measurements taken from ChEMBL document CHEMBL1122855, “Antimalarial agents. 1. alpha-Santonin-derived cyclic peroxide as potential antimalarial agent” (1985).
Values after ≈ are worked out from the molar mass of the structure shown.

Assays:
Mus musculus [1] = assay: In vitro antimalarial activity against chloroquine-resistant (Smith) isolates of Plasmodium falciparum at dose 160 mg/kg in mice (Mus musculus); type: functional
Mus musculus [2] = assay: In vivo toxicity against chloroquine-resistant (Smith) isolates of Plasmodium berghei in mice (Mus musculus); type: functional

| SMILES | ED50 (Mus musculus [1]) [ng/mL] | Toxicity (Mus musculus [2]) [mg/kg] |
| --- | --- | --- |
| CC1=C[C@H]2C[C@]3(C)CC[C@H]4[C@H](C)C(=O)O[C@@H]4C13OO2 (single isomer, unassigned) | 728.59 (≈ 2.76 µM) | 640 |
| C[C@@H]1CC[C@H]2[C@@H](C)C(=O)O[C@@H]3O[C@@]4(C)CC[C@@H]1[C@]32OO4 [ARTEMISININ] | <3.4 |  |
